Laboratory results taken from patent publication US9221834B2 (Merck Sharp & Dohme Corp., priority 2010, dated 2015).
Where a name gives a salt, the structure may show the parent alone.

What follows are compounds tested against T1, recombinant CETP (rCETP) (Homo sapiens, UniProt P11597) (assay: RTA assay using recombinant CETP (2% RTA)). Details: RTA assay in 2% human serum; read-out: IC50.
T1 sequence (P11597 18-493): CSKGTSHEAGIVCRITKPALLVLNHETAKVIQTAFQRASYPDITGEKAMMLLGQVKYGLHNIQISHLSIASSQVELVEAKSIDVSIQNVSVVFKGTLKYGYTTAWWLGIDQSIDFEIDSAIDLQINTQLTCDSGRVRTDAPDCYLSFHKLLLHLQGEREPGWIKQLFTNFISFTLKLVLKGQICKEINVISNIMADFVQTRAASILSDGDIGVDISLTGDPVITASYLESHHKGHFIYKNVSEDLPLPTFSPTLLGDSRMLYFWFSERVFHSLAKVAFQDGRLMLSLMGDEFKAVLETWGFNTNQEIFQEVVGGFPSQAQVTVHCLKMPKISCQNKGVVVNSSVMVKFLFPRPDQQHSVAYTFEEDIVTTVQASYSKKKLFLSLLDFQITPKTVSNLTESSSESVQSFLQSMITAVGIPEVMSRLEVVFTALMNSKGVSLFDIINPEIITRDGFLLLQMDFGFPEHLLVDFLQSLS
Format: biochemical
Procedure: In Vitro Radioactive Assays of CETP-Catalyzed CE and TG Transfer (RTA Assay)
Reagents and sources are: [3H] cholesteryl oleate (GE #TRK.886), [3H]
Both assays measure the transfer of [3H] cholesteryl oleate or [3H]triolein from exogenous LDL to HDL.
After a brief vortex, the solution is sonicated until clear and mixed with 20 mL of fresh human serum. The mixture is incubated overnight at 37° C. […] Once isolated the particles are dialyzed 3× in CETP buffer (50 mM Tris, pH 7.4, 100 mM NaCl, 1 mM EDTA). Human HDL is purchased from Intracel and used as the acceptor particles.
Transfer assays are performed in a 96-well v-bottom polypropylene plate. […] 1 μL of each test compound diluted in DMSO is added to 47 μL of assay cocktail per well and incubated at 37° C. for 1 hour. To initiate the transfer reaction, 2 μL radiolabeled LDL is added. After an additional 60 min of incubation at 37° C., the transfer action is terminated by precipitation of LDL with an equal volume of 20% W/V PEG 8000. The plates are centrifuged at 2000 rpm for 30 minutes at 4° C. A 40 μL aliquot of the HDL-containing supernatant is transferred to a Packard Optiplate with 200 μL of MicroScint 20. After mixing, plates are counted by liquid scintillation. Counts present in the supernatant for blanks (wells containing only HDL acceptor, CETP buffer and DMSO) are subtracted from those containing test compounds and used to correct for non-specific transfer.
Comparison of the counts of samples with inhibitors to an uninhibited (DMSO only) positive control yield a percent inhibition. A plot of percent inhibition vs. log of inhibitor concentration, fit to a Sigmoidal 4 parameter equation is used to calculate IC50.
`COC(=O)CCc1ccc(OC)c(-c2ccc(N3CCC3)nc2CN2C(=O)O[C@H](c3cc(C(F)(F)F)cc(C(F)(F)F)c3)[C@@H]2C)c1` [Example 1, Methyl 3-{3-[6-azetidin-1-yl-2-({(4S,5R)-5-[3,5-bis(trifluoromethyl)phenyl]-4-methyl-2-oxo-1,3-oxazolidin-3-yl}methy)pyridin-3-yl]-4-methoxyphenyl}propanoate] was tested, and the IC50 was 0.008 µM. `CCOC(=O)C[C@@H]1CCc2cc(OC)c(-c3ccc(N4CCC4)nc3CN3C(=O)O[C@H](c4cccc(C(F)(F)F)c4)[C@@H]3C)cc21` [Example 204] gave an IC50 of 0.114 µM. `COc1ccc(CC(C)(C)C(=O)OC(C)(C)C)cc1-c1ccc(N2CCC2)nc1CN1C(=O)O[C@H](c2cccc(C(F)(F)F)c2)[C@@H]1C` [Example 196] gave an IC50 of 0.381 µM. `COc1cc2c(cc1-c1cnc(N3CC(F)(F)C3)nc1CN1C(=O)O[C@H](c3cc(C(F)(F)F)cc(C(F)(F)F)c3)[C@@H]1C)[C@H](CC(=O)O)CC2` [Example 159] was tested, and the IC50 was 0.055 µM. `COc1ccc([C@H]2C[C@H](CC(=O)O)C2)cc1-c1ccc(N2CCC2)nc1CN1C(=O)O[C@H](c2cc(C(F)(F)F)cc(C(F)(F)F)c2)[C@@H]1C` [Example 92] gave an IC50 of 0.005 µM. `COc1ccc([C@H]2CC[C@H](C(=O)O)CC2)cc1-c1ccc(N2CC(F)(F)C2)nc1CN1C(=O)O[C@H](c2cc(F)cc(C(F)(F)F)c2)[C@@H]1C` [Example 283, trans-4-{3-[6-(3,3-difluoroazetidin-1-yl)-2-({(4S,5R)-5-[3-fluoro-5-(trifluoromethyl)phenyl]-4-methyl-2-oxo-1,3-oxazolidin-3-yl}methyl)pyridin-3-yl]-4-methoxyphenyl}cyclohexanecarboxylic acid] gave an IC50 of 0.009 µM. Work on `COC(=O)c1cc(C)c(-c2ccc(OC)c(-c3ccc(N4CCC4)nc3CN3C(=O)O[C@H](c4cc(C(F)(F)F)cc(C(F)(F)F)c4)[C@@H]3C)c2)s1` [Example 46, Methyl 5-{3-[6-azetidin-1-yl-2-({(4S,5R)-5-[3,5-bis(trifluoromethyl)phenyl]-4-methyl-2-oxo-1,3-oxazolidin-3-yl}methyl)pyridin-3-yl]-4-methoxyphenyl}-4-methylthiophene-2-carboxylate] yielded an IC50 of 0.01 µM. `COc1ccc([C@@H]2C[C@H]2C(N)=O)cc1-c1ccc(N2CCC2)nc1CN1C(=O)O[C@H](c2cc(C)cc(C)c2)[C@@H]1C` [Example 250] gave an IC50 of 0.054 µM. With `CCOC(=O)[C@H]1C[C@@H]1c1ccc(OC)c(-c2ccc(N3CCC3)nc2CN2C(=O)O[C@H](c3cc(C(F)(F)F)cc(C(F)(F)F)c3)[C@@H]2C)c1` [Example 4] the IC50 was 0.006 µM. In the case of `COc1cc(F)c(-c2ccc(C(=O)O)cc2C)cc1-c1ccc(N2CCC2)nc1CN1C(=O)O[C@H](c2cc(F)c(F)c(F)c2)[C@@H]1C` [Example 102], the IC50 is reported as 0.008 µM. `COC(=O)c1sc(-c2ccc(OC)c(-c3ccc(N4CCC4)nc3CN3C(=O)O[C@H](c4cc(C(F)(F)F)cc(C(F)(F)F)c4)[C@@H]3C)c2)c(C)c1C` [Example 52] gave an IC50 of 0.015 µM. `COc1cc2c(cc1-c1cnc(N3CCC3)nc1CN1C(=O)O[C@H](c3cc(C(F)(F)F)cc(C(F)(F)F)c3)[C@@H]1C)[C@H](CC(=O)O)CC2` [Example 155] gave an IC50 of 0.04 µM. With `CCOC(=O)[C@@H]1C[C@H]1c1ccc(OC)c(-c2ccc(N3CCC3)nc2CN2C(=O)O[C@H](c3cc(C(F)(F)F)cc(C(F)(F)F)c3)[C@@H]2C)c1` [Example 3] the IC50 was 0.006 µM. `COc1ccc([C@@H]2C[C@H]2C(=O)O)cc1-c1ccc(N2CCC2)nc1CN1C(=O)O[C@H](c2cccc(C)c2)[C@@H]1C` [Example 234] gave an IC50 of 0.267 µM. For `COC(=O)CC(C)(C)c1ccc(OC)c(-c2ccc(N3CCC3)nc2CN2C(=O)O[C@H](c3cccc(C(F)(F)F)c3)[C@@H]2C)c1` [Example 195], the IC50 was 0.044 µM. `COC(=O)CCc1ccc(OC)c(-c2ccc(N3CCC3)nc2CN2C(=O)O[C@H](c3cc(F)cc(F)c3)[C@@H]2C)c1` [Example 14] was tested, and the IC50 was 0.087 µM. `CCOC(=O)[C@@H]1C[C@H]1c1ccc(OC)c(-c2ccc(N3CCC3)nc2CN2C(=O)O[C@H](c3cccc(C)c3)[C@@H]2C)c1` [Example 209] showed an IC50 of 0.099 µM. For `C[C@H]1[C@@H](c2cc(C(F)(F)F)cc(C(F)(F)F)c2)OC(=O)N1Cc1nc(N2CCC2)ccc1-c1cc(CCC(=O)O)ccc1OC1CC1` [Example 248], the IC50 was 0.019 µM. With `COc1ccc([C@H]2C[C@@H]2C(=O)O)cc1-c1ccc(N2CC(F)(F)C2)nc1CN1C(=O)O[C@H](c2cc(C(F)(F)F)cc(C(F)(F)F)c2)[C@@H]1C` [Example 67] the IC50 was 0.014 µM. With `COc1ccc(-n2ncc(C(=O)O)c2C(F)(F)F)cc1-c1c(C)cc(N2CCC2)nc1CN1C(=O)O[C@H](c2cc(C(F)(F)F)cc(C(F)(F)F)c2)[C@@H]1C` [Example 285] the IC50 was 0.004 µM. `COCCCc1ccc(OC2CC2)c(-c2ccc(N3CCC3)nc2CN2C(=O)O[C@H](c3cc(C(F)(F)F)cc(C(F)(F)F)c3)[C@@H]2C)c1` [Example 261] gave an IC50 of 0.042 µM. For `COc1cc2c(cc1-c1ccc(N3CCC3)nc1CN1C(=O)O[C@H](c3cccc(C)c3)[C@@H]1C)[C@H](CC(=O)O)CC2` [Example 231], the IC50 was 0.403 µM. `COc1ccc([C@@H]2C[C@H]2C(N)=O)cc1-c1ccc(N2CCC2)nc1CN1C(=O)O[C@H](c2cccc(C(F)(F)F)c2)[C@@H]1C` [Example 252] was tested, and the IC50 was 0.063 µM. For `COc1ccc(-c2ccc(C(=O)O)cc2C)cc1-c1ccc(N2CCC2)nc1CN1C(=O)O[C@H](c2cc(C)cc(C)c2)[C@@H]1C` [Example 236], the IC50 was 0.013 µM. `COc1ccc(CCc2n(C)cc[n+]2C)cc1-c1ccc(N2CCC2)nc1CN1C(=O)O[C@H](c2cc(C(F)(F)F)cc(C(F)(F)F)c2)[C@@H]1C` [Example 269, 2-(2-{3-[6-azetidin-1-yl-2-({(4S,5R)-5-[3,5-bis(trifluoromethyl)phenyl]-4-methyl-2-oxo-1,3-oxazolidin-3-yl}methyl)pyridin-3-yl]-4-methoxyphenyl}ethyl)-1,3-dimethyl-1H-imidazol-3-ium formate] showed an IC50 of 0.175 µM. Work on `COc1cc(F)c(-c2ccc(C(=O)O)cc2C)cc1-c1cnc(N2CC(F)C2)nc1CN1C(=O)O[C@H](c2cc(C(F)(F)F)cc(C(F)(F)F)c2)[C@@H]1C` [Example 152, 5′-[4-({(4S,5R)-5-[3,5-bis(trifluoromethyl)phenyl]-4-methyl-2-oxo-1,3-oxazolidin-3-yl}methyl)-2-(3-fluoroazetidin-1-yl)pyrimidin-5-yl]-2′-fluoro-4′-methoxy-2-methylbiphen-4-carboxylic acid] yielded an IC50 of 0.01 µM. `COc1ccc(CCO)cc1-c1ccc(N2CCC2)nc1CN1C(=O)O[C@H](c2cc(C(F)(F)F)cc(C(F)(F)F)c2)[C@@H]1C` [Example 259, (4S,5R)-3-({6-azetidin-1-yl-3-[5-(2-hydroxyethyl)-2-methoxyphenyl]pyridin-2-yl}methyl)-5-[3,5-bis(trifluoromethyl)phenyl]-4-methyl-1,3-oxazolidin-2-one] was tested, and the IC50 was 0.004 µM. `COc1ccc(-c2cc(C(=O)O)co2)cc1-c1ccc(N2CCC2)nc1CN1C(=O)O[C@H](c2cc(C(F)(F)F)cc(C(F)(F)F)c2)[C@@H]1C` [Example 113] showed an IC50 of 0.029 µM. With `COc1ccc(-c2cc(C(=O)O)sc2C)cc1-c1ccc(N2CCC2)nc1CN1C(=O)O[C@H](c2cc(C(F)(F)F)cc(C(F)(F)F)c2)[C@@H]1C` [Example 109] the IC50 was 0.009 µM. `COc1ccc(-c2cnc(C(=O)O)cn2)cc1-c1ccc(N2CCC2)nc1CN1C(=O)O[C@H](c2cc(C(F)(F)F)cc(C(F)(F)F)c2)[C@@H]1C` [Example 95] was tested, and the IC50 was 0.034 µM. Work on `COC(=O)CCc1ccc(OC)c(-c2c(C)cc(N3CCC3)nc2CN2C(=O)O[C@H](c3cc(C(F)(F)F)cc(C(F)(F)F)c3)[C@@H]2C)c1` (single isomer, unassigned) [Example 39] yielded an IC50 of 0.003 µM. In the case of `COc1ccc(CC(C)(C)C(=O)OC(C)(C)C)cc1-c1ccc(N2CCC2)nc1CN1C(=O)O[C@H](c2cc(C(F)(F)F)cc(C(F)(F)F)c2)[C@@H]1C` [Example 10], the IC50 is reported as 0.063 µM. In the case of `COc1ccc([C@H]2CC[C@H](C(=O)OC)CC2)cc1-c1ccc(N2CCC2)nc1CN1C(=O)O[C@H](c2cc(F)c(F)c(F)c2)[C@@H]1C` [Example 35], the IC50 is reported as 0.439 µM. In the case of `CCOC(=O)[C@@H]1C[C@H]1c1ccc(OC)c(-c2ccc(N3CCC3)nc2CN2C(=O)O[C@H](c3cc(C)cc(C)c3)[C@@H]2C)c1` [Example 208], the IC50 is reported as 0.025 µM. `COc1ccc([C@H]2CC[C@H](C(=O)O)CC2)cc1-c1ccc(N2CCC2)nc1CN1C(=O)O[C@H](c2cc(C(F)(F)F)cc(C(F)(F)F)c2)[C@@H]1C` [Example 73] showed an IC50 of 0.008 µM.
